In patent publication US11091529B2, “Peptides having reduced toxicity that stimulate cholesterol efflux” (The Regents of the University of California, priority 2014, dated 2021):
Where no end group is shown, it is not given here.

System: male, chow-fed C57Bl/6 mice
Assay: Safety and TG elevating effects after IP injection of peptides (plasma CPK, ALT, AST, TG)
Details: 300 mg/kg IP; for muscle toxicity as judged by CPK activity in plasma: compared with ATI-5261
Source text: Since the position of positively charged amino acids near the lipid-water interface of class A α-helices is thought to mediate membrane interactions, we tested whether inverting the positions of positive and negative residues within ATI-5261 lessened the toxic response of the peptide at high doses. Panel A—Helical-wheel and net diagrams of ATI-5261 showing the positions of positively charged lysine (K) and arginine (R) at the lipid interface of the amphipathic α-helix (i.e. helical wheel diagrams on left). […] Plasma CPK, ALT, AST and TG (table) were assessed after 4 h. Values and means±SD, n=4.
Panel A—The positions of charged amino acids within the LeuATI-5261 peptide were switched to move the positive lysine and arginine residues away from the lipid-water interface of the amphipathic α-helix. Panel B— Safety and TG elevating effects were evaluated by injecting (IP) peptides (300 mg/kg) into male, chow-fed C57Bl/6 mice. Values are means SD, n=4. […] J774 macrophages were labeled with [3H]cholesterol and treated with (red, right side bars) and without (blue, left side bars) cAMP to modulate ABCA1 expression.
Panel A—Safety and TG elevating effects were evaluated by injecting (IP) peptides (300 mg/kg) into male, chow-fed C57Bl/6 mice. Values are means SD, n=4. […] Panel B-ABCA1-dependent cholesterol efflux activity of peptides determined using J774 macrophages labeled with [3H]cholesterol. Results are expressed as the ABCA1 component of efflux.
Peptides or peptidomeimetics of the invention can be evaluated for toxicity using known assays. […] Safety chemistry panels including plasma alanine aminotransferase (ALT), aspartate amino transferase (AST), and creatine kinase (CK) can then be determined in the blood. […]
Since the position of positively charged amino acids near the lipid-water interface of class A α-helices is thought to mediate membrane interactions, we tested whether inverting the positions of positive and negative residues within ATI-5261 lessened the toxic response of the peptide at high doses. […] Plasma CPK, ALT, AST and TG (table) were assessed after 4 h as described in FIGS. 4-6. […]

| Sequence | muscle toxicity as judged by CPK activity in plasma | cytotoxicity (plasma CPK, ALT, AST) (plasma after 4 h, n=4) |
| --- | --- | --- |
| EVRSKLEEWFAAFREFAEEFLARL [T5766-5] | greatly reduced muscle toxicity |  |
| EVRSKLEEWFAAFREFAEEFLARLNS [T5594-4] | greatly reduced muscle toxicity |  |
| KVESELREWLAALEKLARRLLAELES [T6023-2] |  | no increase in muscle toxicity or elevated plasma enzymes compared to vehicle alone |
